Biological target: T1, AR-R840C (Homo sapiens, UniProt P10275, R841C)
T1 construct: expressed in transfected cells
T1 sequence (P10275 1-920 R841C): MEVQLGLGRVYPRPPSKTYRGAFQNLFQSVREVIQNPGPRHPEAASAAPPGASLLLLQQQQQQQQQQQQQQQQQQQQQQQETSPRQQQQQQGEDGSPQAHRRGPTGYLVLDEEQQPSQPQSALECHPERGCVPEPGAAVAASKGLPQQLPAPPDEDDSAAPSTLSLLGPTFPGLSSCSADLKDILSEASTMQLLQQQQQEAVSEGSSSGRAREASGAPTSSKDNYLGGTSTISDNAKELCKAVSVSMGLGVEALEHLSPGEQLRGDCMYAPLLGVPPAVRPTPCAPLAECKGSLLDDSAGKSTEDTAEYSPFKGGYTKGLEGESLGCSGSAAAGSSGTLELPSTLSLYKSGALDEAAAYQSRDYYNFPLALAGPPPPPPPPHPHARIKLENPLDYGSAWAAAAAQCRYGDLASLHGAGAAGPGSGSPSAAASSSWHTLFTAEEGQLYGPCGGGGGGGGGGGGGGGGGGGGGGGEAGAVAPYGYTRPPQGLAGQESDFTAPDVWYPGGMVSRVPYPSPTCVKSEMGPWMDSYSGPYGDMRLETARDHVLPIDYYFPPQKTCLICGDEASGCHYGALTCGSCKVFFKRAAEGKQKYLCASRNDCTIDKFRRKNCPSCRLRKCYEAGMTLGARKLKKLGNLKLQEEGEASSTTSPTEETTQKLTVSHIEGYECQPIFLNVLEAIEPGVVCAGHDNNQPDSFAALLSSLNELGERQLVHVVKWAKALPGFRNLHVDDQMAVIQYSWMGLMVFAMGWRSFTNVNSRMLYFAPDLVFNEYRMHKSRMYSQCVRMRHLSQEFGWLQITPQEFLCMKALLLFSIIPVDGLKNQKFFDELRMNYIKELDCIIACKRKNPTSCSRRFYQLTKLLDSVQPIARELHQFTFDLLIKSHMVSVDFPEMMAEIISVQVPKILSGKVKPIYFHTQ
Type: cell-based
Protocol: To determine the global effect of the various AIS mutations on AR signaling, each was analyzed using HCA. This technology allows simultaneous quantification of AR protein expression, nuclear translocation, subnuclear patterning, and transcriptional activity. The analysis was done in HeLa cell lines stably transfected with wild type or mutant ARs fused with green fluorescent protein, or using AR immunofluorescence in primary cultures of genital skin fibroblasts generated from foreskin biopsies of historical AIS patients, or of normal neonates undergoing circumcision at birth. To prevent the effects of receptor over-expression, stable HeLa cells were carefully selected to express AR levels similar to LNCaP as previously described. Prior to ligand treatment, HeLa cells were transfected with the pARR2PB-dsRED2skl reporter plasmid, consisting of the AR responsive promoter ARR2PB [31] driving expression of the red fluorescent protein reporter dsRED2skl engineered to target peroxisomes.
For studies utilizing HeLa GFP-AR cell lines, twenty-four hours before transfection with pARR2PB-dsRED2skl, cells were plated onto 100 mm plastic dishes in medium supplemented with 5% charcoal-stripped and dialyzed-FBS. Transient introduction of the pARR-2PB-dsRED2skl reporter construct was performed using 6.0 µg reporter plasmid and 6.0 µg carrier DNA (BlueScript, Stratagene, San Diego, CA) using Transfectin (Biorad) following standard protocols. After 8-hour incubation, DNA/lipid complexes were removed. Cells were then trypsinized and replated at 10,000 cells per well in Nunc poly-D-lysine treated 96-well optical glass bottom plates and incubated an additional 12 hours to allow for cell adhesion. […] Compound dilutions and final addition to multi-well plates were performed using a Beckman Biomek NX robotic platform to ensure repeatability from experiment to experiment. After incubation was complete, using the Biomek NX robot, plates were washed with PBS and fixed for 20 min at RT in 4% formaldehyde prepared in CSK buffer (80 mM potassium PIPES, pH 6.8, 5 mM EGTA, 2 mM MgCl2). After fixation, cells were briefly permeabilized (5 min) with 0.5% Triton-X and prepared for imaging by washing in PBS, aspirating the washed solution, and adding a 1 ng/ml DAPI solution to stain DNA and a generic protein stain (CellMask, Invitrogen) to facilitate cell and nuclear image segmentation. Cells were imaged in PBS.
Cells were imaged using the Cell Lab IC-100 Image Cytometer (IC-100; Beckman Coulter) platform that consists of 1) Nikon Eclipse TE2000-U Inverted Microscope (Nikon; Melville, NY); 2) Chroma 82000 triple band filter set (Chroma; Brattleboro, VT); 3) an imaging camera: Hamamatsu ORCA-ER Digital CCD camera (Hamamatsu; Bridgewater, NJ); and 4) a focusing camera: Photonics COHU Progressive scan camera (Photonics; Oxford, MA). […] In general, 49 to 64 images were captured per well for image analysis.
While our initial AR studies using HTM were based upon CytoShop (Beckman-Coulter), [15], [33], these approaches were refined in the current work with the more robust server-client Pipeline Pilot image analysis platform (Basic and Advanced Imagine Collections, Pipeline Pilot 7.5, Accelrys, San Diego). Initially, the background signal was removed from all images using plate- and channel-specific correction images, generated by the sum projection of >600 randomly selected images for each channel from the image set. This allows for a pixel-by-pixel background subtraction that compensates any consistent uneven background artifacts in the image set. Furthermore, users are able to customize the degree of background subtraction by applying a multiplier to each correction image, useful for identification of objects such as nuclei or cell borders. After background subtraction, nuclear masks were generated using a combination of non-linear least squares and watershed-from-markers image manipulations of the DAPI images (Fig. 1B).

Question: Which results are given for `C[C@@H]1CC2=CC(=O)CC[C@@H]2[C@H]2CC[C@@]3(C)[C@@H](CC[C@]3(C)O)[C@@H]21` [Mb, Mibolerone]?
Answer: hyperspeckling (HeLa AR-R840C): 8 fold increase; transcriptional activation (HeLa AR-R840C): 11 fold; increase in nuclear translocation (HeLa AR-R840C, vs untreated): 29%; Nuclear Translocation, Max (HeLa R840C, % signal present in the nucleus): 63.7±1.1%; Hyperspeckling, Max (HeLa R840C, absolute numerical measurement): 269±20; Transcriptional Activity, Max (HeLa R840C, pARR2PB-dsRED2skl reporter, absolute numerical measurement): 35.3±1.4
